According to paper PMC11589570, “Critical assessment of LC3/GABARAP ligands used for degrader development and ligandability of LC3/GABARAP binding pockets” (Nature Communications, 2024):
“And” between values parts separate entries of the source, which are not always exact repeats. Identical values can stand only once.

Key:
[1] = tested on: LC3/GABARAPs (human Atg8 family); test: FP assay with Cy5-labelled p62 LIR tracer, statements on all LC3/GABARAPs; assay type: binding
LC3B = LC3B (Homo sapiens, UniProt Q9GZQ8); test: FP assay with 10O5- and 8F20-based dye-linked tracers 16 and 17; conditions: LC3B; compound 3 for tracer 17, compound 4 for tracer 16
Description: (§1) The only experimental difference in our FP assay setup was the addition of 0.05% Tween-20, which is routinely used[27] to suppress unspecific binding of compounds to proteins.
(§2) Fluorescence polarization assay utilizing tracers 16 and 17 for interaction studies with LC3A
(§3) (upper panels) and LC3B (lower panels). The left panels depict protein titration measurements
(§4) detergent in the buffer to suppress unspecific binding. Middle panels depict displacement
Data were collected in technical
(§5) triplicates with error bars expressing the SD (n=3).

LC3A [2] = molecular target: T1, LC3A (Homo sapiens, UniProt Q9H492); test: as above; conditions: LC3A; compound 3 for tracer 17, compound 4 for tracer 16
Description: as §1, §2, §3, §4
Data were collected in technical
as §5

LC3A [3] = molecular target: T1, LC3A; test: Spectral shift assay (Dianthus), cysteine-labelled protein; assay type: binding; conditions: Repeat 1 and Repeat 2
Method: Affinity determination using spectral shift mode on Dianthus: To determine dissociation constants, the Dianthus instrument (NanoTemper Technologies GmbH, Germany) was used to monitor molecular interactions. […] Protein was labelled with RED-maleimide 2nd Generation (cat# MO-L014; NanoTemper Technologies GmbH). Labeling was carried out following the manufacturer protocol, using a 3:1 ratio dye:protein. […] Protein was purified in 30 mM HEPES, 100 mM NaCl, 0.05% Tween, pH 7.5. […] Measurements were performed in spectral shift mode with an LED excitation power of 100%. Data were analyzed using the DI.Screening Analysis Software (v.2.0.4) (NanoTemper Technologies GmbH, Germany) and quality criteria values including Δ Ratio, Signal-to-Noise-Ratio, Fit Saturation and KD values were determined.

GABARAPL2 = GABARAPL2 (Homo sapiens, UniProt P60520); test: biochemical
Sequence of GABARAPL2 (P60520 whole entry): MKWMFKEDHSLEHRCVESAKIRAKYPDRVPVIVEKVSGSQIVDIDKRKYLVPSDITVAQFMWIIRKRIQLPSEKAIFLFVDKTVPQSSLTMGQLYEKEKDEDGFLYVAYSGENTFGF

[4] = Cell viability measurements; assay type: cell-based; set-up: Cell viability: scale not given here; conditions: two replicate columns
Description: 1 Source data for Supplementary Fig. 8a-f are provided as a Source Data file.

[5] = tested on: live cells of the growth assay; test: Analysis of images of the live cell growth assay (cell morphology); assay type: cell-based; conditions: consistent with G2/M arrest
Method: Using RPE1 and U2OS cells, cell growth was monitored in live cells over a time course of 72 h after treatment with the respective compounds.
Cell growth assay: Cell confluence (phase) from RPE1 (hTERT RPE-1, ATCC CLR_4000) or U2OS (ATCC, HTB-96) cell lines were monitored over time with the IncuCyte S3 (Sartiorius, Germany) in 384-well plates in 50 ul DMEM media, supplemented with 10% Fetal Bovine Serum (FBS) 1% penicillin/Streptomycin and incubated 24 h before treatment. […] Cell confluence is represented as % of area covered by cells. Each data point represents the average ratio or confluence obtained from three individual wells of the plate.

CCCCCCC(Sc1nc(Cl)cc(Nc2nc(-c3ccc(C(=O)O)cc3)cs2)n1)C(=O)O (centres unmarked) [compound 21]
interaction with LC3/GABARAP family members in FP displacement assay [1]: interacted with all LC3/GABARAPs

O=C1Nc2ccc(I)cc2C1=Cc1cc(Br)c(O)c(Br)c1 [compound 4]
displacement of dye-linked tracer by parent compound (LC3B): no displacement
interaction with LC3/GABARAP family members in FP displacement assay [1]: weak interaction of 10O5 (4) with GABARAP family members
displacement of dye-linked tracer by parent compound (LC3A [2]): no displacement
Initial Fluorescence (LC3A [3]; compound 15.2588 nM titrated against LC3A, listed as 10O5 (4)): 5485.239 and 8498.012
Initial Fluorescence (LC3A [3]; compound 30.5176 nM titrated against LC3A, listed as 10O5 (4)): 4967.649 and 8590.938
Initial Fluorescence (LC3A [3]; compound 61.0352 nM titrated against LC3A, listed as 10O5 (4)): 3893.892 and 7432.185
Initial Fluorescence (LC3A [3]; compound 122.07 nM titrated against LC3A, listed as 10O5 (4)): 3715.765 and 5942.313
Initial Fluorescence (LC3A [3]; compound 244.141 nM titrated against LC3A, listed as 10O5 (4)): 3805.917 and 4785.866
Initial Fluorescence (LC3A [3]; compound 488.281 nM titrated against LC3A, listed as 10O5 (4)): 2784.925 and 3093.111
Initial Fluorescence (LC3A [3]; compound 976.562 nM titrated against LC3A, listed as 10O5 (4)): 3008.559 and 2759.079
Initial Fluorescence (LC3A [3]; compound 1953.12 nM titrated against LC3A, listed as 10O5 (4)): 2614.532 and 2461.361
Initial Fluorescence (LC3A [3]; compound 3906.25 nM titrated against LC3A, listed as 10O5 (4)): 2609.726 and 2127.302
Initial Fluorescence (LC3A [3]; compound 7812.5 nM titrated against LC3A, listed as 10O5 (4)): 2627.775 and 2205.232
Initial Fluorescence (LC3A [3]; compound 15625 nM titrated against LC3A, listed as 10O5 (4)): 2084.943 and 1892.122
Initial Fluorescence (LC3A [3]; compound 31250 nM titrated against LC3A, listed as 10O5 (4)): 1913.624 and 1771.147
Initial Fluorescence (LC3A [3]; compound 62500 nM titrated against LC3A, listed as 10O5 (4)): 1934.175 and 2136.348
Initial Fluorescence (LC3A [3]; compound 125000 nM titrated against LC3A, listed as 10O5 (4)): 2010.201 and 1874.865
Initial Fluorescence (LC3A [3]; compound 250000 nM titrated against LC3A, listed as 10O5 (4)): 1863.832 and 1842.946
Initial Fluorescence (LC3A [3]; compound 500000 nM titrated against LC3A, listed as 10O5 (4)): 1618.141 and 1654.997
Kd (GABARAPL2): 15 to 30 µM
viability at 20 µM ([4]; log concentration [M] -4.69897): 104%
Cell viability ([4]; log concentration [M] -4.69897, listed as 10O5): 92.5568
viability at 7.5 µM ([4]; log concentration [M] -5.12494): 94.8%
Cell viability ([4]; log concentration [M] -5.12494, listed as 10O5): 95.6466
viability at 2.5 µM ([4]; log concentration [M] -5.60206): 94.2%
Cell viability ([4]; log concentration [M] -5.60206, listed as 10O5): 97.1871
viability at […] ([4]; log concentration [M] -6.00436): 95.7%
Cell viability ([4]; log concentration [M] -6.00436, listed as 10O5): 90.9151
viability at 0.3 µM ([4]; log concentration [M] -6.52288): 104%
Cell viability ([4]; log concentration [M] -6.52288, listed as 10O5): 93.3208
viability at 0.125 µM ([4]; log concentration [M] -6.90309): 101%
Cell viability ([4]; log concentration [M] -6.90309, listed as 10O5): 92.1984
viability at 0.05 µM ([4]; log concentration [M] -7.30103): 103%
Cell viability ([4]; log concentration [M] -7.30103, listed as 10O5): 94.2945
viability at 0.01625 µM ([4]; log concentration [M] -7.78915): 101%
Cell viability ([4]; log concentration [M] -7.78915, listed as 10O5): 89.5849
viability at […] ([4]; log concentration [M] -8.06399): 103%
Cell viability ([4]; log concentration [M] -8.06399, listed as 10O5): 99.4914
viability at 0.005 µM ([4]; log concentration [M] -8.30103): 99.7%
Cell viability ([4]; log concentration [M] -8.30103, listed as 10O5): 88.3293
viability at 0.0021 µM ([4]; log concentration [M] -8.67778): 100%
Cell viability ([4]; log concentration [M] -8.67778, listed as 10O5): 90.0519

Cc1ccc(C(=O)N(CCCN)[C@@H](c2nc3cc(Cl)ccc3c(=O)n2Cc2ccccc2)C(C)C)cc1 [compound 3, (R)-N-(3-aminopropyl)-N-(1-(3-benzyl-7-chloro-4-oxo-3,4-dihydroquinazolin-2-yl)−2-methylpropyl)−4-methylbenzamide]
displacement of dye-linked tracer by parent compound (LC3B): no displacement
displacement of dye-linked tracer by parent compound (LC3A [2]): no displacement
cell morphology in live cell images [5]: increased number of rounded cells
Initial Fluorescence (LC3A [3]; compound 15.2588 nM titrated against LC3A, listed as 8F20 (3)): 10115.139 and 10590.376
Initial Fluorescence (LC3A [3]; compound 30.5176 nM titrated against LC3A, listed as 8F20 (3)): 10801.294 and 10751.715
Initial Fluorescence (LC3A [3]; compound 61.0352 nM titrated against LC3A, listed as 8F20 (3)): 10969.053 and 11514.474
Initial Fluorescence (LC3A [3]; compound 122.07 nM titrated against LC3A, listed as 8F20 (3)): 10805.714 and 11350.170
Initial Fluorescence (LC3A [3]; compound 244.141 nM titrated against LC3A, listed as 8F20 (3)): 12437.260 and 12829.142
Initial Fluorescence (LC3A [3]; compound 488.281 nM titrated against LC3A, listed as 8F20 (3)): 11460.432 and 11424.556
Initial Fluorescence (LC3A [3]; compound 976.562 nM titrated against LC3A, listed as 8F20 (3)): 11304.154 and 11789.590
Initial Fluorescence (LC3A [3]; compound 1953.12 nM titrated against LC3A, listed as 8F20 (3)): 11136.164 and 11540.347
Initial Fluorescence (LC3A [3]; compound 3906.25 nM titrated against LC3A, listed as 8F20 (3)): 11540.226 and 11678.705
Initial Fluorescence (LC3A [3]; compound 7812.5 nM titrated against LC3A, listed as 8F20 (3)): 12368.631 and 13118.831
Initial Fluorescence (LC3A [3]; compound 15625 nM titrated against LC3A, listed as 8F20 (3)): 13549.037 and 11303.453
Initial Fluorescence (LC3A [3]; compound 31250 nM titrated against LC3A, listed as 8F20 (3)): 12093.613 and 11816.274
Initial Fluorescence (LC3A [3]; compound 62500 nM titrated against LC3A, listed as 8F20 (3)): 12824.797 and 12883.571
Initial Fluorescence (LC3A [3]; compound 125000 nM titrated against LC3A, listed as 8F20 (3)): 12380.010 and 12980.949
Initial Fluorescence (LC3A [3]; compound 250000 nM titrated against LC3A, listed as 8F20 (3)): 12405.646 and 13536.280
viability at 20 µM ([4]; log concentration [M] -4.69897): 0.689%
Cell viability ([4]; log concentration [M] -4.69897, listed as 8F20): 1.283
viability at 7.5 µM ([4]; log concentration [M] -5.12494): 91.3%
Cell viability ([4]; log concentration [M] -5.12494, listed as 8F20): 92.2351
viability at 2.5 µM ([4]; log concentration [M] -5.60206): 96.5%
Cell viability ([4]; log concentration [M] -5.60206, listed as 8F20): 100.107
viability at […] ([4]; log concentration [M] -6.00436): 93.4%
Cell viability ([4]; log concentration [M] -6.00436, listed as 8F20): 93.5465
viability at 0.3 µM ([4]; log concentration [M] -6.52288): 103%
Cell viability ([4]; log concentration [M] -6.52288, listed as 8F20): 93.076
viability at 0.125 µM ([4]; log concentration [M] -6.90309): 105%
Cell viability ([4]; log concentration [M] -6.90309, listed as 8F20): 93.9495
viability at 0.05 µM ([4]; log concentration [M] -7.30103): 102%
Cell viability ([4]; log concentration [M] -7.30103, listed as 8F20): 103.3
viability at 0.01625 µM ([4]; log concentration [M] -7.78915): 96.5%
Cell viability ([4]; log concentration [M] -7.78915, listed as 8F20): 90.0205
viability at […] ([4]; log concentration [M] -8.06399): 103%
Cell viability ([4]; log concentration [M] -8.06399, listed as 8F20): 92.6947
viability at 0.005 µM ([4]; log concentration [M] -8.30103): 99.5%
Cell viability ([4]; log concentration [M] -8.30103, listed as 8F20): 91.472
viability at 0.0021 µM ([4]; log concentration [M] -8.67778): 99.1%
Cell viability ([4]; log concentration [M] -8.67778, listed as 8F20): 90.5247
